Measured values: patent US8283349B2, “Fungicide N-(3-phenylpropyl) carboxamide derivatives” (Bayer Cropscience AG, priority 2007, dated 2012)

Tested on: Mycosphaerella graminicola
Experiment: Cell test on Mycosphaerella graminicola
Format: cell-based
Details: under similar conditions (6 ppm, liquid medium, OD 620 nm); comparison compounds of the prior art
Experimental: The growth of Mycosphaerella graminicola is performed in a bactopeptone based liquid medium at 20° C. under shaking (120 rpm) during 72 hours. The bactopeptone based medium is prepared by mixing 14.6 grams of D-glucose, 1.4 grams of Yeast extract and 7.1 g of bacteriological peptone (OXOID ref. LP0037) in 1 liter of demineralized water. The medium is sterilized by autoclave 15 minutes at 121° C. After 72 hours, pre-culture of Mycosphaerella graminicola is recovered and the optic density (OD) at 620 nm is adjusted with the bactopeptone based medium at 0.5. The compounds are dissolved in DMSO and added to sterile liquid bactopeptone medium at a concentration of 6 ppm. The medium is inoculated with the pre-culture of Mycosphaerella graminicola by a dilution of 10 times of the pre-culture. The efficacy of the compounds is assessed by OD measurement at 620 nm after 4 days at 20° C. in comparison with a control.

## COc1ccnc(C(=O)NCCC(c2ccccc2)c2ccccc2)c1O [compound 16, N-(3,3-diphenylpropyl)-3-hydroxy-4-methoxypyridine-2-carboxamide]
  activity: did not show any activity

## COc1ccc(CCCNC(=O)c2c(-c3ccc(Cl)cc3)noc2C)cc1OC [compound 60, 3-(4-chlorophenyl)-N-[3-(3,4-dimethoxyphenyl)propyl]-5-methylisoxazole-4-carboxamide]
  activity: did not show any activity
